Assay results from PubChem BioAssay (NCI).
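Exposure lasted 48 hours, with cells grown in 96-well plates and compounds tested at five concentrations. The concentration for 50% growth inhibition is given as GI50. Definition used: TGI = concentration required for complete inhibition of growth.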

How the values were obtained:
Assay in all cases: inhibition of tumour cell growth, NCI panel, 48 h
786-0 renal = system: 786-0 renal
A498 renal = system: A498 renal
A549 NSCLC = system: A549 NSCLC
ACHN renal = system: ACHN renal
BT-549 breast = system: BT-549 breast
CAKI-1 renal = system: CAKI-1 renal
CCRF-CEM leukemia = system: CCRF-CEM leukemia
COLO 205 colon = system: COLO 205 colon
DU-145 prostate = system: DU-145 prostate
EKVX NSCLC = system: EKVX NSCLC
HCC-2998 colon = system: HCC-2998 colon
HCT-116 colon = system: HCT-116 colon
HCT-15 colon = system: HCT-15 colon
HL-60(TB) leukemia = system: HL-60(TB) leukemia
HOP-62 NSCLC = system: HOP-62 NSCLC
HOP-92 NSCLC = system: HOP-92 NSCLC
HT29 colon = system: HT29 colon
IGROV1 ovarian = system: IGROV1 ovarian
K-562 leukemia = system: K-562 leukemia
KM12 colon = system: KM12 colon
M14 melanoma = system: M14 melanoma
MALME-3M melanoma = system: MALME-3M melanoma
MCF7 breast = system: MCF7 breast
MDA-MB-435 = system: MDA-MB-435
MDA-MB-468 breast = system: MDA-MB-468 breast
MOLT-4 leukemia = system: MOLT-4 leukemia
NCI-H226 lung = system: NCI-H226 lung
NCI-H23 lung = system: NCI-H23 lung
NCI-H460 lung = system: NCI-H460 lung
NCI-H522 lung = system: NCI-H522 lung
NCI/ADR-RES ovarian = system: NCI/ADR-RES ovarian
OVCAR-3 ovarian = system: OVCAR-3 ovarian
OVCAR-4 ovarian = system: OVCAR-4 ovarian
OVCAR-5 ovarian = system: OVCAR-5 ovarian
OVCAR-8 ovarian = system: OVCAR-8 ovarian
PC-3 prostate = system: PC-3 prostate
RPMI-8226 leukemia = system: RPMI-8226 leukemia
RXF 393 renal = system: RXF 393 renal
SF-268 CNS = system: SF-268 CNS
SF-295 CNS = system: SF-295 CNS
SF-539 CNS = system: SF-539 CNS
SK-MEL-2 melanoma = system: SK-MEL-2 melanoma
SK-MEL-28 melanoma = system: SK-MEL-28 melanoma
SK-MEL-5 melanoma = system: SK-MEL-5 melanoma
SK-OV-3 ovarian = system: SK-OV-3 ovarian
SN12C renal = system: SN12C renal
SNB-19 CNS = system: SNB-19 CNS
SNB-75 CNS = system: SNB-75 CNS
SR leukemia = system: SR leukemia
T-47D breast = system: T-47D breast
TK-10 renal = system: TK-10 renal
U251 CNS = system: U251 CNS
UACC-257 melanoma = system: UACC-257 melanoma
UACC-62 melanoma = system: UACC-62 melanoma
UO-31 renal = system: UO-31 renal

COc1ccc(-c2ccnc(SCc3cc4cc(OC)ccc4[nH]c3=O)n2)cc1
GI50 (786-0 renal): 26 µM
TGI (786-0 renal): > 100 µM
GI50 (A498 renal): > 100 µM
TGI (A498 renal): > 100 µM
GI50 (A549 NSCLC): 10.1 µM
TGI (A549 NSCLC): > 100 µM
GI50 (ACHN renal): 20.6 µM
TGI (ACHN renal): > 100 µM
GI50 (BT-549 breast): 3.4 µM
TGI (BT-549 breast): > 100 µM
GI50 (CAKI-1 renal): 6.11 µM
TGI (CAKI-1 renal): > 100 µM
GI50 (CCRF-CEM leukemia): 6.66 µM
TGI (CCRF-CEM leukemia): > 100 µM
GI50 (COLO 205 colon): 17.3 µM
TGI (COLO 205 colon): > 100 µM
GI50 (DU-145 prostate): 34.9 µM
TGI (DU-145 prostate): > 100 µM
GI50 (EKVX NSCLC): 4.16 µM
TGI (EKVX NSCLC): > 100 µM
GI50 (HCC-2998 colon): 31.4 µM
TGI (HCC-2998 colon): > 100 µM
GI50 (HCT-116 colon): 3.64 µM
TGI (HCT-116 colon): > 100 µM
GI50 (HCT-15 colon): 4.33 µM
TGI (HCT-15 colon): > 100 µM
GI50 (HL-60(TB) leukemia): 2.34 µM
TGI (HL-60(TB) leukemia): > 100 µM
GI50 (HOP-62 NSCLC): 10.9 µM
TGI (HOP-62 NSCLC): 97.9 µM
GI50 (HOP-92 NSCLC): 7.95 µM
TGI (HOP-92 NSCLC): > 100 µM
GI50 (HT29 colon): 5.38 µM
TGI (HT29 colon): > 100 µM
GI50 (IGROV1 ovarian): 5.66 µM
TGI (IGROV1 ovarian): > 100 µM
GI50 (K-562 leukemia): 2.55 µM
TGI (K-562 leukemia): > 100 µM
GI50 (KM12 colon): 9.43 µM
TGI (KM12 colon): > 100 µM
GI50 (M14 melanoma): 7.31 µM
TGI (M14 melanoma): > 100 µM
GI50 (MALME-3M melanoma): 17 µM
TGI (MALME-3M melanoma): > 100 µM
GI50 (MCF7 breast): 4.65 µM
TGI (MCF7 breast): > 100 µM
GI50 (MDA-MB-435): 3.17 µM
TGI (MDA-MB-435): > 100 µM
GI50 (MDA-MB-468 breast): 2.09 µM
TGI (MDA-MB-468 breast): 6.16 µM
GI50 (MOLT-4 leukemia): 3.26 µM
TGI (MOLT-4 leukemia): > 100 µM
GI50 (NCI-H226 lung): 8.14 µM
TGI (NCI-H226 lung): > 100 µM
GI50 (NCI-H23 lung): 19 µM
TGI (NCI-H23 lung): > 100 µM
GI50 (NCI-H460 lung): 7.41 µM
TGI (NCI-H460 lung): > 100 µM
GI50 (NCI-H522 lung): 7.82 µM
TGI (NCI-H522 lung): > 100 µM
GI50 (NCI/ADR-RES ovarian): 4.06 µM
TGI (NCI/ADR-RES ovarian): > 100 µM
GI50 (OVCAR-3 ovarian): 17.9 µM
TGI (OVCAR-3 ovarian): > 100 µM
GI50 (OVCAR-4 ovarian): 17.6 µM
TGI (OVCAR-4 ovarian): > 100 µM
GI50 (OVCAR-5 ovarian): 23.6 µM
TGI (OVCAR-5 ovarian): > 100 µM
GI50 (OVCAR-8 ovarian): 22.8 µM
TGI (OVCAR-8 ovarian): > 100 µM
GI50 (PC-3 prostate): 6.96 µM
TGI (PC-3 prostate): > 100 µM
GI50 (RPMI-8226 leukemia): 5.05 µM
TGI (RPMI-8226 leukemia): > 100 µM
GI50 (RXF 393 renal): 4.42 µM
TGI (RXF 393 renal): > 100 µM
GI50 (SF-268 CNS): 17.7 µM
TGI (SF-268 CNS): > 100 µM
GI50 (SF-295 CNS): 7.09 µM
TGI (SF-295 CNS): > 100 µM
GI50 (SF-539 CNS): 6.67 µM
TGI (SF-539 CNS): > 100 µM
GI50 (SK-MEL-2 melanoma): 6.27 µM
TGI (SK-MEL-2 melanoma): > 100 µM
GI50 (SK-MEL-28 melanoma): 14.1 µM
TGI (SK-MEL-28 melanoma): > 100 µM
GI50 (SK-MEL-5 melanoma): 4.95 µM
TGI (SK-MEL-5 melanoma): 38 µM
GI50 (SK-OV-3 ovarian): 56.3 µM
TGI (SK-OV-3 ovarian): > 100 µM
GI50 (SN12C renal): 7.41 µM
TGI (SN12C renal): > 100 µM
GI50 (SNB-19 CNS): 35.2 µM
TGI (SNB-19 CNS): > 100 µM
GI50 (SNB-75 CNS): 2.46 µM
TGI (SNB-75 CNS): 71.4 µM
GI50 (SR leukemia): 2.95 µM
TGI (SR leukemia): > 100 µM
GI50 (T-47D breast): 4.97 µM
TGI (T-47D breast): > 100 µM
GI50 (TK-10 renal): 26.1 µM
TGI (TK-10 renal): > 100 µM
GI50 (U251 CNS): 12.4 µM
TGI (U251 CNS): > 100 µM
GI50 (UACC-257 melanoma): 74.5 µM
TGI (UACC-257 melanoma): > 100 µM
GI50 (UACC-62 melanoma): 4.62 µM
TGI (UACC-62 melanoma): > 100 µM
GI50 (UO-31 renal): 8.94 µM
TGI (UO-31 renal): > 100 µM
